Experimental data published in patent US9777005B2 (Takeda Pharmaceutical Company Limited, priority 2012, dated 2017).

Target: T1, human M1 receptor (hCHRM1) (Homo sapiens, UniProt P11229)
T1 construct: expressed in transfected cells; host or cells: CHO-K1
T1 sequence (P11229 1-460): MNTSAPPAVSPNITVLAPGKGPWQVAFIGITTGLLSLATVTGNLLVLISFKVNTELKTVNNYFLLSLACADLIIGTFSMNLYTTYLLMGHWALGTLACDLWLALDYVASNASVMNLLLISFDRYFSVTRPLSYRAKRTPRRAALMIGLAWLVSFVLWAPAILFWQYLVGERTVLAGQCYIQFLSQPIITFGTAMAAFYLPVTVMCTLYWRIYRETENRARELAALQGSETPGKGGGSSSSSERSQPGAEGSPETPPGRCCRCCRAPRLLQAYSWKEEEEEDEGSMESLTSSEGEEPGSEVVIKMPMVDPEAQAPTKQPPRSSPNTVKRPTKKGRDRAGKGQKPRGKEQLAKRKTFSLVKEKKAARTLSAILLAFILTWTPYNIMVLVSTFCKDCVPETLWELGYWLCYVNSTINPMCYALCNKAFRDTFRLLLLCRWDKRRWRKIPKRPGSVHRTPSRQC
Test: Measurement of M1 receptor positive allosteric modulator (M1PAM) activity, calcium fluorescence (FLIPRtetra) in CHO-K1 cells in the presence of acetylcholine at EC20
Type: cell-based
Conditions: in the presence of acetylcholine at EC20 (final 0.6 nM), CHO-K1 cells expressing hCHRM1; for EC50: inflection point of M1PAM activity, read-out: IP value; for activity (%) at 10 μM: test compound 10 μM
Procedure, shortened: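 PAM activity was measured as calcium flux by FLIPRtetra over 1 min after co-addition of compound and EC20 acetylcholine (final 0.6 nM) to Fluo-4-loaded hCHRM1 CHO-K1 cells. The response was scaled between DMSO (0%) and 1 μM acetylcholine (100%), and the inflection point of the concentration curve gives the IP value.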

| EC50 [nM] | activity (%) at 10 μM [%] | SMILES |
| --- | --- | --- |
| 24 | 99 | Cn1cc(-c2ccc(CN3Cc4cccc(Oc5c(F)cc(F)cc5C#N)c4C3=O)cc2)cn1 [Example 73] |
| 12 | 102 | CCC(CO)Oc1nccc2c1C(=O)N(Cc1ccc(-c3cn(C)nc3C)cc1)C2 (single isomer, unassigned) [Example 274, 2-(4-(1,3-dimethyl-1H-pyrazol-4-yl)benzyl)-4-((l-hydroxybutan-2-yl)oxy)-1,2-dihydro-3H-pyrrolo[3,4-c]pyridin-3-one] |
| 12 | 104 | Cn1cc(-c2ccc(CN3Cc4ccnc(OC5c6ncccc6CC5(C)C)c4C3=O)cc2)cn1 (stereo not drawn) [Example 349, 4-((6,6-dimethyl-6,7-dihydro-5H-cyclopenta[b]pyridin-7-yl)oxy)-2-(4-(1-methyl-1H-pyrazol-4-yl)benzyl)-1,2-dihydro-3H-pyrrolo[3,4-c]pyridin-3-one] |
| 9.3 | 99 | CCc1ccc(Oc2nccc3c2C(=O)N(Cc2ccc(C(N)=O)cc2)C3)c(F)c1 [Example 449, 4-((4-(4-ethyl-2-fluorophenoxy)-3-oxo-1,3-dihydro-2H-pyrrolo[3,4-c]pyridin-2-yl)methyl)benzamide] |
| 65 | 99 | CC(Oc1nccc2c1C(=O)N(Cc1ccc(-c3cn(C)nn3)cc1F)C2)c1ccccc1F (stereo not drawn) [Example 334, 2-(2-fluoro-4-(1-methyl-1H-1,2,3-triazol-4-yl)benzyl)-4-(1-(2-fluorophenyl)ethoxy)-1,2-dihydro-3H-pyrrolo[3,4-c]pyridin-3-one] |
| 3.4 | 96 | Cn1cc(-c2ccc(CN3Cc4ccnc(Oc5ccc(C(C)(C)C#N)cc5F)c4C3=O)cc2)cn1 [Example 409, 2-(3-fluoro-4-((2-(4-(1-methyl-1H-pyrazol-4-yl)benzyl)-3-oxo-2,3-dihydro-1H-pyrrolo[3,4-c]pyridin-4-yl)oxy)phenyl)-2-methylpropanenitrile] |
| 16 | 104 | Cn1cc(-c2ccc(CN3Cc4ccnc(OCC5CC5)c4C3=O)c(F)c2)nn1 [Example 331, 4-(cyclopropylmethoxy)-2-(2-fluoro-4-(1-methyl-TH-1,2,3-triazol-4-yl)benzyl)-1,2-dihydro-3H-pyrrolo[3,4-c]pyridin-3-one] |
| 24 | 96 | Cc1nn(C)cc1-c1ccc(CN2Cc3ccnc(OCC4CCOC4)c3C2=O)cc1 (stereo not drawn) [Example 265, 2-(4-(1,3-dimethyl-1H-pyrazol-4-yl)benzyl)-4-((tetrahydrofuran-3-yl)methoxy)-1,2-dihydro-3H-pyrrolo[3,4-c]pyridin-3-one] |
| 14 | 97 | Cn1cc(-c2ccc(CN3Cc4ncnc(Oc5c(F)cc(F)cc5F)c4C3=O)cc2)nn1 [Example 370, 6-(4-(1-methyl-1H-1,2,3-triazol-4-yl)benzyl)-4-(2,4,6-trifluorophenoxy)-6,7-dihydro-5H-pyrrolo[3,4-d]pyrimidin-5-one] |
| 1.8 | 95 | Cn1cc(-c2ccc(CN3Cc4ccnc(Oc5ccc(CC#N)cc5F)c4C3=O)cc2)cn1 [Example 405, (3-fluoro-4-((2-(4-(1-methyl-1H-pyrazol-4-yl)benzyl)-3-oxo-2,3-dihydro-1H-pyrrolo[3,4-c]pyridin-4-yl)oxy)phenyl)acetonitrile] |
| 14 | 101 | NC(=O)c1ccc(CN2Cc3ccnc(Oc4ccc(C(F)(F)F)cc4F)c3C2=O)cc1F [Example 438, 2-fluoro-4-((4-(2-fluoro-4-(trifluoromethyl)phenoxy)-3-oxo-1,3-dihydro-2H-pyrrolo[3,4-c]pyridin-2-yl)methyl)benzamide] |
| 39 | 112 | Cc1cc(C(F)(F)F)cc(F)c1Oc1nccc2c1C(=O)N(Cc1ccc(-c3ccn(C)n3)cc1)C2 [Example 421, 4-(2-fluoro-6-methyl-4-(trifluoromethyl)phenoxy)-2-(4-(1-methyl-1H-pyrazol-3-yl)benzyl)-1,2-dihydro-3H-pyrrolo[3,4-c]pyridin-3-one] |
| 8.2 | 110 | Cc1cc(-c2ccc(CN3Cc4ccnc(O[C@@H]5CCC[C@H]5O)c4C3=O)cc2)ccn1 (single isomer, unassigned) [Example 242, 4-((trans-2-hydroxycyclopentyl)oxy)-2-(4-(2-methylpyridin-4-yl)benzyl)-1,2-dihydro-3H-pyrrolo[3,4-c]pyridin-3-one] |
| 10 | 99 | O=C1c2c(ccnc2OCC2CCCO2)CN1Cc1ccc(-c2cnn(CC(F)(F)F)c2)cc1 (stereo not drawn) [Example 287, 4-((tetrahydrofuran-2-yl)methoxy)-2-(4-(1-(2,2,2-trifluoroethyl)-1H-pyrazol-4-yl)benzyl)-1,2-dihydro-3H-pyrrolo[3,4-c]pyridin-3-one] |
| 33 | 95 | Cn1cc(-c2ccc(CN3Cc4ncnc(Oc5c(F)cccc5Cl)c4C3=O)cc2)cn1 [Example 396, 4-(2-chloro-6-fluorophenoxy)-6-(4-(1-methyl-TH-pyrazol-4-yl)benzyl)-6,7-dihydro-5H-pyrrolo[3,4-d]pyrimidin-5-one] |
| 28 | 101 | Cc1cc(-c2ccc(CN3Cc4ncnc(Oc5c(F)cc(F)cc5F)c4C3=O)cc2)ccn1 [Example 367, 6-(4-(2-methylpyridin-4-yl)benzyl)-4-(2,4,6-trifluorophenoxy)-6,7-dihydro-5H-pyrrolo[3,4-d]pyrimidin-5-one] |
| 17 | 100 | CCc1ccc(Oc2nccc3c2C(=O)N(Cc2ccc(C(=O)NC)cc2)C3)c(F)c1 [Example 444, 4-((4-(4-ethyl-2-fluorophenoxy)-3-oxo-1,3-dihydro-2H-pyrrolo[3,4-c]pyridin-2-yl)methyl)-N-methylbenzamide] |
| 19 | 98 | Cn1cc(-c2ccc(CN3Cc4ccnc(OC5CCC5)c4C3=O)c(F)c2)nn1 [Example 338, 4-(cyclobutyloxy)-2-(2-fluoro-4-(1-methyl-1H-1,2,3-triazol-4-yl)benzyl)-1,2-dihydro-3H-pyrrolo[3,4-c]pyridin-3-one] |
| 65 | 108 | Cc1nn(C)cc1-c1ccc(CN2Cc3ccnc(Oc4c(F)cccc4Cl)c3C2=O)cc1 [Example 281, 4-(2-chloro-6-fluorophenoxy)-2-(4-(1,3-dimethyl-1H-pyrazol-4-yl)benzyl)-1,2-dihydro-3H-pyrrolo[3,4-c]pyridin-3-one] |
| 76 | 104 | CCC(CO)Oc1nccc2c1C(=O)N(Cc1ccc(-c3cn(C)nc3C)cc1)C2 (single isomer, unassigned) [Example 275, 2-(4-(1,3-dimethyl-1H-pyrazol-4-yl)benzyl)-4-((l-hydroxybutan-2-yl)oxy)-1,2-dihydro-3H-pyrrolo[3,4-c]pyridin-3-one] |
| 340 | 94 | O=C1c2c(ccnc2OCC2CCCO2)CN1Cc1ccc(Br)cc1 (stereo not drawn) [Example 284, 2-(4-bromobenzyl)-4-((tetrahydrofuran-2-yl)methoxy)-1,2-dihydro-3H-pyrrolo[3,4-c]pyridin-3-one] |
| 4.3 | 106 | Cc1nn(C)cc1-c1ccc(CN2Cc3ccnc(OCc4ncccc4F)c3C2=O)c(F)c1 [Example 329, 2-(4-(1,3-dimethyl-1H-pyrazol-4-yl)-2-fluorobenzyl)-4-((3-fluoropyridin-2-yl)methoxy)-1,2-dihydro-3H-pyrrolo[3,4-c]pyridin-3-one] |
| 6.4 | 97 | Cn1cc(-c2ccc(CN3Cc4cccc(O[C@H]5CCCC[C@@H]5O)c4C3=O)cn2)cn1 (relative stereo) [Example 27] |
| 44 | 100 | CCNC(=O)c1ccc(CN2Cc3ccnc(Oc4ccc(C)cc4F)c3C2=O)c(F)c1 [Example 441, N-ethyl-3-fluoro-4-((4-(2-fluoro-4-methylphenoxy)-3-oxo-1,3-dihydro-2H-pyrrolo[3,4-c]pyridin-2-yl)methyl)benzamide] |
| 6.1 | 102 | NC(=O)c1ccc(CN2Cc3ccnc(Oc4ccc(C5CC5)cc4F)c3C2=O)cc1 [Example 448, 4-((4-(4-cyclopropyl-2-fluorophenoxy)-3-oxo-1,3-dihydro-2H-pyrrolo[3,4-c]pyridin-2-yl)methyl)benzamide] |
| 410 | 103 | Cn1cc(-c2coc(CN3Cc4cccc(Oc5c(F)cccc5C#N)c4C3=O)c2)cn1 [Example 69, 3-fluoro-2-((2-((4-(1-methyl-1H-pyrazol-4-yl)-2-furyl)methyl)-3-oxo-2,3-dihydro-1H-isoindol-4-yl)oxy)benzonitrile] |
| 72 | 105 | COc1cccc(F)c1Oc1nccc2c1C(=O)N(Cc1ccc(-c3cnn(C)c3)cc1)C2 [Example 360, 4-(2-fluoro-6-methoxyphenoxy)-2-(4-(1-methyl-1H-pyrazol-4-yl)benzyl)-1,2-dihydro-3H-pyrrolo[3,4-c]pyridin-3-one] |
